From patent publication US9884851B2, “Heterocycle-bisamide inhibitors of scavenger receptor BI” (THE BROAD INSTITUTE, INC., priority 2012, dated 2018) come the findings set out here.

Entries after “also recorded” stand apart in the source; their conditions may differ.

One series relates to ldlA[mSR-BI] cells. In words: Cell cytotoxicity assay (CellTiter-Glo). The conditions noted are these: ldlA[mSR-BI] cells. The procedure: It is possible that a compound will cause cells to decrease HDL-mediated DiI uptake due to nonspecific consequences of cellular toxicity, representing a second class of false positive hits. The cells were treated with compounds for 3 hours or 24 hours, and then cell viability was measured using the CellTiter-Glo Assay (Promega), a luciferase-based reagent that measures cellular ATP levels. The compounds were tested at different concentrations to determine IC50 values. […] Data were normalized against DMSO and the positive control (1 μM BLT-1) in Genedata Assay Analyzer.
All available dry powder samples of the remaining, non-quenching compounds were procured from commercial sources and purities were determined. The compounds obtained were then retested in the primary assay and in cytotoxicity assays. We wanted to rule out any compounds that were cytotoxic, especially in the 3-hour time span of the primary DiI-HDL uptake assay. Therefore, compounds were tested in ldl[mSR-BI] cells for cytotoxicity at 3 hours and 24 hours using the CellTiter-Glo assay (Promega) that measures cellular ATP as a marker of cell viability. […] Compounds were screened for inhibition of endocytosis using labeled transferrin, which is known to bind the transferrin receptor, enter cells by clathrin-mediated endocytosis, and move to endosomes before being recycled to the cell surface.

For the next series, the system named is hepatitis C virus (HCV). Kind of series: In vitro testing with Huh-7.5 cells infected with HCV. The format is cell-based. The conditions noted are these: for inhibition of HCV replication (in words): Huh-7.5 cells infected with Jcl 378-1 TagRFP (MOI=0.1), 3 dpi. The procedure: A series of tests were conducted using the compound of Formula II (CID53393835/ML279), other known inhibitors of SR-BI and controls with cells infected with hepatitis C virus (HCV). The cells (Huh-7.5 cells infected with Jcl 378-1 TagRFP (MOI=0.1) 3 dpi) were treated with the following SR-BI compounds and controls:
Three different infection protocols were followed: (1) no wash—virus inoculum was removed 4hpi and fresh medium containing compounds added without washing cells; (2) 5× wash—virus inoculum was removed 4hpi, cells were washed 5× with PBS and fresh medium containing compounds added; and (3) no wash Opt—infection were performed in serum-free OptiMem; virus inoculum was removed 4hpi and fresh medium containing compounds added without washing cells. FIG. 90 provides a comparison of the three different infection set-ups. FIG. 91 provides a comparison of two independent experiments.

Series [1] concerns the target T1, SR-BI (Mus musculus, UniProt Q61009).
T1 sequence (Q61009 1-509): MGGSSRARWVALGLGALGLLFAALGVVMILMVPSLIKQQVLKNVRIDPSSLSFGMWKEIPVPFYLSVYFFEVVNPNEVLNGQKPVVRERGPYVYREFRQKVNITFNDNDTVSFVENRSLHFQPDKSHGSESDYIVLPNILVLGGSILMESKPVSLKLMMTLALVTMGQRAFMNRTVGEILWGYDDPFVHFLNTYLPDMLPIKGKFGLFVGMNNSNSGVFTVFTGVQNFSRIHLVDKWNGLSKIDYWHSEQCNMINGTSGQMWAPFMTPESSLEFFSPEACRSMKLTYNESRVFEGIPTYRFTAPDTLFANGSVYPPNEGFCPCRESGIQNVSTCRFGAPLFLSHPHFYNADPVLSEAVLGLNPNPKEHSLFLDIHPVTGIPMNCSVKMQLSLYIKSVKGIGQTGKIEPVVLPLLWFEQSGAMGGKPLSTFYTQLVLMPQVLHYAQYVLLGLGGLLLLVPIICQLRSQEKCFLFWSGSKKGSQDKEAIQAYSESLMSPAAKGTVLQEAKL
In words: DiI-HDL uptake assay with washout. The class given is cell-based, murine. On the set-up: expressed in transfected cells; host or cells: ldlA[mSR-BI], Chinese hamster ovary (CHO) cells lacking LDL receptor (Krieger Laboratory). The conditions noted are these: compound pretreatment, wash, DiI-HDL without compound. The procedure:
DiI-HDL Uptake Assay with Washout (SA 5: AID No. 588831)
This is a modification of the primary assay where cells are pretreated with compound but no compound is present during the DiI-HDL treatment period. ldlA[mSR-BI] cells were plated into 384-well plates at 30 μl per well and incubated overnight. Cells were treated with compound for 3 hours, then media were removed and the cells were washed with PBS before fresh lipoprotein-free media (Ham's F12/0.5% fatty acid-free Bovine Serum Albumin [BSA]/25 mM HEPES pH 7.4) was added with 10 μg protein/ml DiI-HDL. Cells took up the DiI via SR-BI over 3 hours in the absence of compound. After significant uptake of the DiI, the cells became fluorescent. The level of fluorescence correlates with the amount of DiI uptake and can be measured with a standard plate reader. The uptake of lipid (represented by DiI) was inhibited by the compound BLT-1.

For series [2], the target named is T1, SR-BI. Kind of series: DiI-HDL uptake assay with extended washout. The class given is cell-based, murine. The arrangement: expressed in transfected cells; host or cells: ldlA[mSR-BI], Chinese hamster ovary (CHO) cells lacking LDL receptor (Krieger Laboratory). The conditions noted are these: 4-hour washout period. The procedure: DiI-HDL Uptake Assay with Extended Washout (SA 5: AID No. 588831)
This is another modification of the primary assay where cells are pretreated with compound but no compound is present during a 4-hour washout period or the subsequent 3-hour DiI-HDL treatment period. […] Cells were treated with compound for 3 hours, then were washed four times with PBS, once with lipoprotein-free media (Ham's F12/0.5% fatty acid-free Bovine Serum Albumin [BSA]/25 mM HEPES pH 7.4), and then returned to the incubator with lipoprotein-free media for 4 hours. Media were then removed and cells were washed with PBS before fresh lipoprotein-free media (Ham's F12/0.5% fatty acid-free Bovine Serum Albumin [BSA]/25 mM HEPES pH 7.4) was added with 10 μg protein/ml DiI-HDL. Cells took up the DiI via SR-BI over 3 hours in the absence of compound. After significant uptake of the DiI, the cells became fluorescent. The level of fluorescence correlates with the amount of DiI uptake and can be measured with a standard plate reader. The uptake of lipid (represented by DiI) was inhibited by the compound BLT-1 or with an excess of HDL untreated with DiI.

As to `CCCCCCC1CCCC1=NNC(N)=S` (stereo not shown) [BLT-1, reference compound], the “cytotoxicity (in words)” value in the series with ldlA[mSR-BI] cells is “extremely toxic to cells”. Further, the “inhibition of HCV replication (in words)” value is given as “able to inhibit HCV replication” in the series with hepatitis C virus (HCV) (listed as 8) and “inhibited viral replication” in the series with hepatitis C virus (HCV) (listed as SRB1-8). In the series with hepatitis C virus (HCV) (dose dependence), the “mean fluorescence intensity (MFI) of HCV positive cells (in words)” value was “increased mean fluorescence intensity (MFI) of HCV positive cells in a dose dependent manner”. In addition, the “reversibility of inhibition / activity after washout (in words)” value at SR-BI [1] is “nonreversible covalent modifier of SR-BI”. At SR-BI [2] (read-out: DiI-HDL uptake IC50 after 4-hour washout period), the IC50 amounted to 0.6 nM.
On to `C[C@H](C(=O)NC1CCCC1)N(C(=O)Cn1nnc(-c2ccc3c(c2)OCO3)n1)C1CCCCC1` [ML279, (R)-2-(2-(5-(Benzo[d][1,3]dioxol-5-yl)-2H-tetrazol-2-yl)-N-cyclohexylacetamido)-N-cyclopentylpropanamide], for which the “cytotoxicity (in words)” value in the series on ldlA[mSR-BI] cells is on record as “not cytotoxic; also recorded: no cytotoxicity at 24 hours”. For the same molecule, the results for the “inhibition of HCV replication (in words)” value with hepatitis C virus (HCV) (listed as 5) and with hepatitis C virus (HCV) (listed as SRB1-5) were “able to inhibit HCV replication” and “inhibited viral replication”, respectively. For the same molecule, the “inhibition of virus assembly/egress (in words)” value with hepatitis C virus (HCV) (fluorescence intensity of HCV positive cells normalized to DMSO) is “can also inhibit virus assembly/egress”. The “reversibility of inhibition / activity after washout (in words)” value on SR-BI [1] is reported as “reversible binder of SR-BI; also recorded: greatly attenuated; also recorded: reversible inhibitor of HDL uptake; also recorded: showed no inhibition”; at SR-BI [1] (listed as compound of Formula (II)), “reversible inhibitor”. Further, the “activity after extended washout (in words)” value at SR-BI [2] is “greatly attenuated”.
